Experiments:
human CYP2C9 = human CYP2C9 (Homo sapiens, UniProt P11712)
human CYP2D6 = human CYP2D6 (Homo sapiens, UniProt P10635)
human CYP2C19 = human CYP2C19 (Homo sapiens, UniProt P33261)
CYP3A4 = CYP3A4 (Homo sapiens, UniProt P08684)
human CYP1A2 = biological target: T1, human CYP1A2 (Homo sapiens, UniProt P05177)
T1 sequence (P05177 1-516): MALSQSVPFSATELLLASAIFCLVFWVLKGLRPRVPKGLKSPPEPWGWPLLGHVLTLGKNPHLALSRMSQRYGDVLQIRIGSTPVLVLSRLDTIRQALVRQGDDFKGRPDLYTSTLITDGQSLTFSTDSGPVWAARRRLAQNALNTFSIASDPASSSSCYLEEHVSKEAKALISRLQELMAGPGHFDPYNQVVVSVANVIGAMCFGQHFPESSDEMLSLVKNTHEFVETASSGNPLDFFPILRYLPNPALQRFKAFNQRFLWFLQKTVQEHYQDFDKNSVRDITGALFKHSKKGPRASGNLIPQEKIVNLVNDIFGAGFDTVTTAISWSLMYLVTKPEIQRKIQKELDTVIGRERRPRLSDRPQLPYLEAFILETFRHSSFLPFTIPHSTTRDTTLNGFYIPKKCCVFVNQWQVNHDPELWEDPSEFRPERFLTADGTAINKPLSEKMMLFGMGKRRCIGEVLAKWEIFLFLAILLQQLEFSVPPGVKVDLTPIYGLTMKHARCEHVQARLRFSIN

Sequence of human CYP2C9 (P11712 whole entry): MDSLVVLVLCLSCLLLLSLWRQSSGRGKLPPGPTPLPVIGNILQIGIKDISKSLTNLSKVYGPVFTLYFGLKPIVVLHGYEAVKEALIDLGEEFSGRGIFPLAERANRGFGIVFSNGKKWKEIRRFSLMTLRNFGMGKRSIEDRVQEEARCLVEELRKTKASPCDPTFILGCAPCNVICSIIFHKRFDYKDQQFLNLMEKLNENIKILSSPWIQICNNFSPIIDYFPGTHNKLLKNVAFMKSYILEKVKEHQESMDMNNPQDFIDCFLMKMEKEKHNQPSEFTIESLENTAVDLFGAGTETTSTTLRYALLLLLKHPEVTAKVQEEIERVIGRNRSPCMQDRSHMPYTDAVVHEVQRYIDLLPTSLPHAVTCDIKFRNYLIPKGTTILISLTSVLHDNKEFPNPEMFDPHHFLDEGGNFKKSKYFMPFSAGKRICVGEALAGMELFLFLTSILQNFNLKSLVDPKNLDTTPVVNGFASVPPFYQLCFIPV
Sequence of human CYP2C19 (P33261 whole entry): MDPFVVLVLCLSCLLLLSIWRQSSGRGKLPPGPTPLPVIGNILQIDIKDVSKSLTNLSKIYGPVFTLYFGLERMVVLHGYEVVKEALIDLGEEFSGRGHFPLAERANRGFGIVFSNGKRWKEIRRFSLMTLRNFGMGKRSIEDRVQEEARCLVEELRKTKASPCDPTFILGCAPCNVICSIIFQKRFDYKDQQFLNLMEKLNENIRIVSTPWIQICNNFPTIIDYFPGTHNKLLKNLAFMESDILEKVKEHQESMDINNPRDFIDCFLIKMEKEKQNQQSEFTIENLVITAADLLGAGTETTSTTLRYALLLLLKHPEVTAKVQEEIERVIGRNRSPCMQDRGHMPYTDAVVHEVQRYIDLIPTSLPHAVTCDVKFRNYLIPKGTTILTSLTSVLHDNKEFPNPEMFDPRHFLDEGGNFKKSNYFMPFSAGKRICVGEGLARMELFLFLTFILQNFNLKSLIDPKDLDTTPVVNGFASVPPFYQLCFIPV
Sequence of CYP3A4 (P08684 whole entry): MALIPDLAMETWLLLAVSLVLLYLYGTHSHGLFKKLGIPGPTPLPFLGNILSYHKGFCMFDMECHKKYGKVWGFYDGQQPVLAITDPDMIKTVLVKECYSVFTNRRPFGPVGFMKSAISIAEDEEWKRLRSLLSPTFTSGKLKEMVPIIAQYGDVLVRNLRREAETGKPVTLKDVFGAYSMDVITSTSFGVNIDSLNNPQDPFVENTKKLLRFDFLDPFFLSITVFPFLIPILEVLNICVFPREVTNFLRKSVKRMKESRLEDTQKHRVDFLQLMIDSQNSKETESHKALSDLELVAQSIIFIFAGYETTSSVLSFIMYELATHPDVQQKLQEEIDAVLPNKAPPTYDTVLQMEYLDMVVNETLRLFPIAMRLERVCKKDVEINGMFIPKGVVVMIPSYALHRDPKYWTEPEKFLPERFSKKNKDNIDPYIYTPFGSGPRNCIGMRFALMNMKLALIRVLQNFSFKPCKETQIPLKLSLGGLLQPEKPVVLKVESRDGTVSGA
Sequence of human CYP2D6 (P10635 whole entry): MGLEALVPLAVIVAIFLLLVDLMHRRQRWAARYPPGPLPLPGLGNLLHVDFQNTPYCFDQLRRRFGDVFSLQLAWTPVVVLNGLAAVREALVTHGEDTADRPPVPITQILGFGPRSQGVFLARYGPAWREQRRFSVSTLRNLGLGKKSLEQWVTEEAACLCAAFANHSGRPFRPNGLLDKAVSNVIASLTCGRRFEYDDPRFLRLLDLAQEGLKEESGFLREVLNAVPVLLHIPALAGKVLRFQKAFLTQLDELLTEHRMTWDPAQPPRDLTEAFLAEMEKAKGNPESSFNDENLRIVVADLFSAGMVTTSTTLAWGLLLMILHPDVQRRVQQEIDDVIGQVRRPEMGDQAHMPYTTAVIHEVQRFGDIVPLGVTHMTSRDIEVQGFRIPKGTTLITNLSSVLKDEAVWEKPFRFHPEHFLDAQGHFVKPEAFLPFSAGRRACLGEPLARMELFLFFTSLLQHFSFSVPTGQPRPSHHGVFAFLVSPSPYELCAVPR

Row | SMILES | AC50 (human CYP2C9) [µM] | CYP2D6 AC50 (half-maximal activity concentration) (human CYP2D6) | CYP2C19 AC50 (half-maximal activity concentration) (human CYP2C19) | CYP3A4 AC50 (half-maximal activity concentration) (CYP3A4) | CYP1A2 AC50 (half-maximal activity concentration) (human CYP1A2) | AC50 (CYP3A4) [µM] | AC50 (human CYP2C19) [µM] | AC50 (human CYP1A2) [µM] | AC50 (human CYP2D6) [µM] | CYP2C9 AC50 (half-maximal activity concentration) (human CYP2C9)
1 | CCS(=O)(=O)c1ccc(OC)c(C(=O)OC)c1 [Methyl 5-(ethylsulfonyl)-o-anisate] | 24.6 | Inactive | Inconclusive inhibitor | Inactive | Inactive | – | – | – | – | –
2 | COC(=O)c1cc(S(N)(=O)=O)ccc1OC [Methyl 5-sulfamoyl-o-anisate] | 30.9 | Inactive | Inactive | Inactive | Inactive | – | – | – | – | –
3 | CCCCCCC(O)CCCCCCCCCCC(=O)OC (stereo not drawn) [Methyl 12-hydroxyoctadecanoate] | 23.8 | Inactive | Inactive | – | Inconclusive inhibitor | 27.7 | – | – | – | –
4 | CCCCCCCCCCCCCOP(=O)(O)O [Monotridecyl phosphate] | 56.7 | Inactive | – | – | – | 89.4 | 45.5 | 65.1 | – | –
5 | O=C1C=CC(=O)N1c1cccc(N2C(=O)C=CC2=O)c1 [N,N'-1,3-Phenylenedimaleimide] | 5.22 | – | – | – | – | 9.83 | 7.04 | 12.7 | 36.3 | –
6 | CN(C)CCc1c[nH]c2ccccc12.O=C(O)/C=C/C(=O)O [N,N-Dimethyltryptamine fumarate] | – | – | Inactive | – | Inactive | 89.9 | – | – | 34.6 | Inactive
7 | CCC(CC)Nc1ccc(C)c(C)c1 [N-(1-Ethylpropyl)-3,4-xylidine] | 33.6 | Inconclusive inhibitor | – | – | – | 1.45 | 10.7 | 11.6 | – | –
8 | CCNS(=O)(=O)c1ccc(C)cc1 [N-Ethyl-4-methylbenzenesulfonamide] | 32 | Inconclusive inhibitor | – | Inactive | – | – | 25.9 | 41.1 | – | –
9 | CC(C)N1C(=O)c2ccccc2C1=O [N-Isopropylphthalimide] | – | Inactive | Inactive | – | – | 57.7 | – | 35.6 | – | Inconclusive inhibitor
10 | O=C(O)C[C@H](NC(=O)OCc1ccccc1)C(=O)O [N-[(Benzyloxy)carbonyl]-L-aspartic acid] | – | Inactive | Inactive | – | Inactive | 35.5 | – | – | – | Inactive
11 | C[C@]12CC[C@H]3[C@@H](CCC4=CC(=O)CC[C@@H]43)[C@@H]1CC[C@@H]2OC(=O)CCC1CCCCC1 [Nandrolone cyclohexylpropionate] | 17.4 | Inactive | Inconclusive inhibitor | – | – | 4.56 | – | 26.8 | – | –
12 | CC(C)(COC(=O)c1ccccc1)COC(=O)c1ccccc1 [Neopentyl glycol dibenzoate] | 6.58 | Inactive | – | – | – | 35.7 | 20.8 | 47.7 | – | –
13 | Cc1cc(C)nc(O)n1.O=C(Nc1ccc([N+](=O)[O-])cc1)Nc1ccc([N+](=O)[O-])cc1 [Nicarbazin] | – | Inactive | Inconclusive inhibitor | – | Inactive | 7.42 | – | – | – | Inactive
14 | O=C(O)C(F)(F)C(F)(F)C(F)(F)C(F)(F)C(F)(F)F [PFHxA] | 17.5 | Inconclusive inhibitor | Inactive | – | Inactive | 58.1 | – | – | – | –
15 | N.O=C(O)C(F)(F)C(F)(F)C(F)(F)C(F)(F)C(F)(F)C(F)(F)C(F)(F)F [PFOA, ammonium salt] | 1.78 | Inactive | – | – | Inactive | 76.8 | 60.8 | – | – | –
16 | O=C(O)C(F)(F)C(F)(F)C(F)(F)C(F)(F)C(F)(F)C(F)(F)C(F)(F)F [PFOA] | 2.52 | Inactive | Inactive | – | Inactive | 70.8 | – | – | – | –
17 | CCOC(=O)c1ccc(N(C)C)cc1 [Parbenate] | 31.9 | Inactive | – | – | – | 47.9 | 21.6 | 4.68 | – | –

Row | SMILES | AC50 (human CYP2C9) [µM] | CYP2D6 AC50 (half-maximal activity concentration) (human CYP2D6) | CYP2C19 AC50 (half-maximal activity concentration) (human CYP2C19) | CYP3A4 AC50 (half-maximal activity concentration) (CYP3A4) | CYP1A2 AC50 (half-maximal activity concentration) (human CYP1A2) | AC50 (CYP3A4) [µM] | AC50 (human CYP2C19) [µM] | AC50 (human CYP1A2) [µM] | AC50 (human CYP2D6) [µM] | CYP2C9 AC50 (half-maximal activity concentration) (human CYP2C9)
18 | O=C(OCCCCCOC(=O)c1ccccc1)c1ccccc1 [Pentane-1,5-diyl dibenzoate] | 10.5 | Inactive | – | – | – | 26.9 | 48.1 | 8.29 | – | –
19 | CN1C(=O)N(c2ccccc2Br)Cc2cnc(Nc3ccc4c(c3)OCC(CO)O4)nc21 (stereo not drawn) [PharmaGSID_48519] | 12.2 | – | – | – | – | 1.4 | 5.72 | 30.7 | 56.6 | –
20 | CC(C)C(=O)OCCOc1ccccc1 [Phenoxyethyl isobutyrate] | 36 | Inactive | – | – | – | 22.6 | 38.5 | 31.9 | – | –
21 | CCC(=O)OCCOc1ccccc1 [Phenoxyethyl propionate] | – | Inactive | Inconclusive inhibitor | – | – | 47.1 | – | 55.5 | – | Inconclusive
22 | COC(=O)c1ccccc1C(=O)c1ccc(OCCN2CCCCC2)cc1.Cl [Pitofenone hydrochloride] | – | – | Inactive | – | Inactive | 15.5 | – | – | 14.9 | Inactive
23 | CCCOc1ccc2c(c1)CC[C@@H]1[C@@H]2CC[C@]2(C)[C@@H](OC)CC[C@@H]12 [Promestriene] | – | – | Inconclusive inhibitor | – | – | 9.46 | – | 33.7 | 21.5 | Inconclusive inhibitor
24 | CCCCCCCCS(=O)(=O)[O-].[Na+] [Sodium 1-octanesulfonate] | 44.1 | Inactive | Inactive | – | Inactive | 33.1 | – | – | – | –
25 | CCCCCCCCc1ccc(S(=O)(=O)[O-])cc1.[Na+] [Sodium 4-octylbenzenesulfonate] | 76.8 | Inactive | Inactive | – | Inactive | 63.9 | – | – | – | –
26 | C=Cc1ccc(S(=O)(=O)[O-])cc1.[Na+] [Sodium 4-vinylbenzenesulfonate] | – | Inactive | Inactive | – | – | 30.1 | – | 63.5 | – | Inactive
27 | CCOC(=O)c1ccc(NC(=O)CN2CCCCC2)cc1 [Sulcaine] | 37.8 | – | Inactive | – | – | 26.4 | – | 22.2 | 16.8 | –
28 | O=C(O)CC(C(=O)O)S(=O)(=O)O (stereo not drawn) [Sulfosuccinic acid] | – | – | – | – | – | 43.2 | 11.9 | 33 | 60.6 | Inactive
29 | CN(C)C1CSSSC1.O=C(O)C(=O)O [Thiocyclam oxalate] | 28.3 | – | – | – | – | 33 | 38.5 | 61 | 38.5 | –
30 | Cc1ccc(C(C)OC(=O)[C@]2(C)CC[C@H](C(=O)O)C2(C)C)cc1.OCCNCCO (stereo partly drawn) [Tocanfil] | 36.1 | Inactive | Inactive | – | Inactive | 14.4 | – | – | – | –
31 | CCCCCCCCCCCC(=O)O.OCCN(CCO)CCO [Triethanolamine Laurate] | 115 | Inactive | – | – | Inconclusive inhibitor | 89.2 | 135 | – | – | –
32 | O=C(OCCOCCOCCOC(=O)c1ccccc1)c1ccccc1 [Triethylene glycol dibenzoate] | 2.75 | Inconclusive inhibitor | – | Inactive | – | – | 20.8 | 17.8 | – | –
33 | COC(=O)c1ccc(C(=O)OC)c(C(=O)OC)c1 [Trimethyl benzene-1,2,4-tricarboxylate] | – | Inactive | – | – | – | 49.9 | 32.3 | 7.19 | – | Inactive

From paper PMC12155096 (International Journal of Molecular Sciences, 2025)
